Laboratory results as given in US20110070575A1, “Immunomodulatory Compositions, Combinations and Methods” (Coley Pharmaceutical Group, Inc., priority 2004, published 2011).
Entries after “also recorded” stand apart in the source; their conditions may differ. Oligonucleotides are written 5' to 3', each unit as a sugar letter and its base; * is a phosphorothioate linkage, no mark a phosphodiester; rarer units and linkages stand in square brackets, end groups in braces. Plain capitals give the bases only. d = 2'-deoxy (DNA)

Biological target: T1, Human TLR7 (Homo sapiens, UniProt Q9NYK1)
T1 construct: expressed in transfected cells; host or cells: HEK293 (ATCC No. CRL-1573)
T1 sequence (Q9NYK1 27-1049): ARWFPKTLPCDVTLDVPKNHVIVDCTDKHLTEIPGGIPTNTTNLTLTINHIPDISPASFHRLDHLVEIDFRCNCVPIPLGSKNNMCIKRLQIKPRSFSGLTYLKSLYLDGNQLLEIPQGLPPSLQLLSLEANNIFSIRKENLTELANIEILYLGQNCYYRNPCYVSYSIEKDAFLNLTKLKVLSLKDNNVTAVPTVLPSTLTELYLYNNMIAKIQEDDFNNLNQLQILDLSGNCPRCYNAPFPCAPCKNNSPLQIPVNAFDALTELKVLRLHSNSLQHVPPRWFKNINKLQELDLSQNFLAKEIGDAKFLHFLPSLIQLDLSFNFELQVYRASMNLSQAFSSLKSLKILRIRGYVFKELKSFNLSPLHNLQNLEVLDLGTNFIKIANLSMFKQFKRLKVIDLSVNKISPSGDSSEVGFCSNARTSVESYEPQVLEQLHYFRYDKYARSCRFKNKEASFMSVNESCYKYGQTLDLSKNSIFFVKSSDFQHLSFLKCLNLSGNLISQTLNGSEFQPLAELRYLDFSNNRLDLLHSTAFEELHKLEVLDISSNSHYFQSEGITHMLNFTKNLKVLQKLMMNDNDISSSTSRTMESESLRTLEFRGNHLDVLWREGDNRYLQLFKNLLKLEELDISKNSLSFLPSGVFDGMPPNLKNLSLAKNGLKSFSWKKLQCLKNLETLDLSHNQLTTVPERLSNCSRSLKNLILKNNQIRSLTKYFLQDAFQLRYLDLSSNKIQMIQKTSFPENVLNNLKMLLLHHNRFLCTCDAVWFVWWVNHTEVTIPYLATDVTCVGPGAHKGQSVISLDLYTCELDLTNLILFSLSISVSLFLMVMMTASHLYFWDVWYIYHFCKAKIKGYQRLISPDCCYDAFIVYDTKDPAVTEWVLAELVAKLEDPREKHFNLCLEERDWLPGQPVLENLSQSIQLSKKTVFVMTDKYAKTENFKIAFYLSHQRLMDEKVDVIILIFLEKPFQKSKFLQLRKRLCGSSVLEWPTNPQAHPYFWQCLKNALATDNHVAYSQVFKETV
Assay: NFκB luciferase induction in HEK293 cells transfected with human TLR7
Format: cell-based
Settings: transfected HEK293 cell line; poly(T), poly(A) or poly(C) oligonucleotide with 3 μM IRM1; overnight
Experimental: Human TLR7 and NFκβ were transfected into human epithelial kidney 293 (HEK293, American Type Culture Collection, Manassas, Va., ATCC No. CRL-1573) cells as described in U.S. Patent Publication Nos. U82004/0014779 and US2004/0171086. The selected transfected cells were counted and resuspended to a concentration of 5×10^5 cell per mL in culture media.
Cultured media was prepared from complete DMEM media (Biosource International Inc., Camarillo, Calif.), without phenol red. Fetal bovine serum (Biosource International Inc.) was added to a final concentration of 10% (vol/vol.), sodium pyruvate (Biosource International Inc.) was added to 1 mM; L-glutamine (Biosource International Inc.) was added to 2 mM; penicillin (Biosource International Inc.) was added to 100 U/mL; streptomycin (Biosource International Inc.) was added to 100 μg/mL.
100 μL aliquots of cells were placed in the wells of a white-walled, white-bottomed 96-well plate (Corning, Inc. Corning, N.Y.). […] As a negative control, some cell aliquots were incubated without a stimulus (media control). In all cases, the cells were incubated overnight at 37° C. with 5% CO2 and 98% humidity.
After the cells incubated overnight, 100 μL volume of reconstituted LucLight Plus (Packard Instruments, Meriden, Conn.) was added to each aliquot of cells. Each well of the plate was read on a L-max luminometer (Molecular Devices, Sunnyvale, Calif.). The data is expressed as fold increase of luciferase induction in cell aliquots incubated with the indicated stimulant compared to the negative control.
HEK293 cells expressing human TLR7 were prepared as described in Example 1. […] As a negative control, some cell aliquots were incubated without a stimulus (media control).
After the cells incubated overnight, the cells were analyzed as described in Example 1. The data is expressed as fold increase of luciferase induction in cell aliquots incubated with the indicated stimulant compared to the negative control.

Row | Substance | inhibition of smIRM-induced TLR7-mediated biological activity (fold increase of luciferase induction)
1 | poly(A): 18-mer poly(A) oligonucleotide, 5′-AAAAAAAAAAAAAAAAAA-3′ (dA*dA*dA*dA*dA*dA*dA*dA*dA*dA*dA*dA*dA*dA*dA*dA*dA*dA) | inhibition; also recorded: capable of limiting TLR7-mediated biological activity
2 | poly(T): 18-mer poly(T) oligonucleotide, 5′-TTTTTTTTTTTTTTTTTT-3′ | inhibition; also recorded: capable of limiting TLR7-mediated biological activity
